Non-standard residues stand in square brackets, D forms with d. Residues, ends and D or L forms follow the SMILES beside them. αMeP = C[C@@]1(C(=O)O)CCCN1
How the values were obtained:
[1] = tested on: PCNA positive cells in the subventricular zone (SVZ); assay: PCNA staining, neuroblast proliferation in the subventricular zone; assay type: in vivo, rat; conditions: for number of PCNA positive cells in the SVZ: 3 days after treatment
Experimental: To carry out these studies, tissues were fixed and embedded in paraffin and sections obtained using standard methods. Coronal sections (6 μm) containing the level of the hippocampus were cut and mounted on chrome-alum-coated slides for staining. The sections were deparaffinized in xylene, dehydrated in a series of ethanol and incubated in 0.1 M phosphate buffered saline (PBS).
Primary antibodies against glial fibrillary acidic protein (GFAP) and proliferating cell nuclear antigen (PCNA) were used to mark reactive glial cells and cells undergoing apoptosis and proliferation, respectively. For antigen unmasking (caspase-3 and PCNA staining), sections were heated in 10 mM sodium citrate buffer (pH 6.0) for 1 min at high power. All sections were pretreated with 1% […] in 50% methanol for 30 min to quench the endogenous peroxidase activity. Then either 1.5% normal horse serum or 2.5% normal sheep serum in PBS was applied for 1 h at room temperature to block nonspecific background staining. The sections were then incubated with following primary antibodies: monoclonal mouse anti-GFAP antibody (Sigma, St. Louis, Mo., U.S.A. diluted 1:500); mouse anti-PCNA antibody (DAKA, A/S, Denmark, diluted 1:100). After incubation with primary antibodies at 4° C. for 2 d (except for PCNA staining which was incubated overnight) the sections were incubated with biotinylated horse anti-mouse or goat anti-rabbit secondary antibody (1:200, Sigma) at 4° C. overnight. The ExtrAvidin™ (Sigma, 1:200), which had been prepared 1 h before use, was applied for 3 h at room temperature, and then reacted in 0.05% 3,3-diaminobenzidine (DAB) and PBS to produce a brown reaction product. Sections were dehydrated in a series of alcohols to xylene and coverslipped with mounting medium.
Immunohistochemical staining was performed on brain samples taken from both control and G-2-MePE treated groups of young (4 months old), middle-aged (9 months old) and aged rats (18 months old).
Control sections were processed in the same way except the primary antibody was omitted from the incubation solution. The number of PCNA positive cells was counted in the subventricular zone and the GFAP positive cells was scored in the cerebral cortex.
The subventricular zone (SVZ) and the dentate gyrus (DG) are two brain regions hosting adult neurogenesis. […]
Eighteen month old male rats were treated intraperitoneally with single does of G2-MePE (doses of either 0, 0.012, 0.12. 1.2, 12 mg/kg). […] The number of PCNA positive cells was counted in the SVZ and the number of cells was then averaged as cells/mm depending on the length of ventricle wall used for counting (FIG. 19A). […]

[2] = tested on: hippocampal slices of heterozygous Shank3-deficient mice; assay: Shank3-deficient mouse model, hippocampal slice electrophysiology; assay type: in vivo; conditions: 15 or 60 mg/kg oral b.i.d. for 14 days
Experimental: 1 to 3 month old wild type and heterozygous Shank3-deficient mice are divided into 4 treatment groups: placebo treated wild-type, placebo treated Shank3-deficient group and two Shank3-deficient G-2-MePE treated groups. The animals are given placebo (water) or G-2-MePE formulated in water administered orally, b.i.d for 14 days. G-2-MePE is administered at two doses: 15 or 60 mg/kg.
Post-mortem, acute hippocampal slices (350 μm) are prepared from mice using a tissue chopper. Slices are maintained and experiments are conducted at 32° C. Slices are perfused with Ringer's solution containing (in mM): NaCl, 125.0; KCl, 2.5; MgSO4, 1.3; NaH2PO4, 1.0; NaHCO3, 26.2; CaCl2, 2.5; glucose, 11.0. The Ringer's solution is bubbled with 95% O2/5% CO2, at 32° C., during extracellular recordings (electrode solution: 3 M NaCl). Slices are maintained for 1 hr prior to establishment of a baseline of field excitatory postsynaptic potentials (fEPSPs) recorded from stratum radiatum in area CA1, evoked by stimulation of the Schaffer collateral-commissural afferents (100 μs pulses every 30 s) with bipolar tungsten electrodes placed into area CA3. Test stimulus intensity is adjusted to obtain fEPSPs with amplitudes that are one-half of the maximal response. The EPSP initial slope (mV/ms) is determined from the average waveform of four consecutive responses. Input-output (I/O) curves are generated by plotting the fEPSP slope versus fiber volley amplitude in low-Mg^2+ (0.1 mM) solution. AMPA receptor-mediated and NMDA receptor-mediated I/O relationships are measured in the presence of ionotropic glutamate receptor antagonists: […] APV (50 μM) and 6-cyano-7-nitroquinoxaline-2,3-dione CNQX (100 μM). Paired-pulse responses are measured with interstimulus intervals of 10 to 200 ms, and are expressed as the ratio of the average responses to the second stimulation pulse to the first stimulation pulse. […]

[3] = tested on: animals with penetrating ballistic injury; conditions: pTBI; cited from earlier work
[4] = vs placebo treated Shank3-deficient group

Structure (SMILES): C[C@@]1(C(=O)N[C@@H](CCC(=O)O)C(=O)O)CCCN1C(=O)CN [Example G-2-MePE, Glycyl-L-2-methylprolyl-L-glutamic acid] (H-Gly-[αMeP]-Glu-OH)
- number of PCNA positive cells in the SVZ ([1]; 1.2 mg/kg i.p., 9 month old rats, p<0.005): significant increase
- dose dependence of effect on neurogenesis ([1]; 0.012-12 mg/kg single i.p. dose, 18 month old rats): dose-dependent effect
- number of PCNA positive cells in the SVZ ([1]; 12 mg/kg single i.p. dose, 18 month old rats, vs vehicle p<0.05): significant increase
- PCNA and doublecortin staining ([1]; highest dose, vs vehicle treated rat, FIG. 19B): increase
- AMPA receptor-mediated field potentials [2]: normalizes
- average slope of I/O function [2, 4]: increase
- hippocampal long-term potentiation (LTP) and its maintenance [2, 4]: increased
- neuroinflammation [3]: inhibits

Reference: patent publication US9212204B2, “Treatment of rett syndrome using glycyl-L-2-methylprolyl-L-glutamic acid” (priority 2011, dated 2015)
